The text below walks through data of PMC8105311 (Scientific Reports, 2021).

The conditions of series [1]: cited from earlier work.
A short description of series [2]: Solubility of L-carnitine in water. Format: physicochemical.
The subject of series [3] is mice. Details: method as in PMID 25488130. The conditions noted are these: cited from earlier work.
Series [4] is described as follows: 195Pt NMR of ligand exchange of cisplatin in solution. Format: physicochemical. The conditions noted are these: for Detection of Pt species by 195Pt NMR: DMSO aq. equimolar to 50 wt% TMG aq., day 1. The protocol: ^195Pt NMR spectrometry and mass spectrometry
After leaving it at room temperature, the resulting solution was measured at Day 5 and Day 10. We used co-axial tubes and K2[PtCl4] in D2O (for adjusting shim) was in the inner tube.
(1 mL) was prepared and left for one day. The resulting solution was measured by ^195Pt NMR (Day 1; 25,000 scans). NaCl (80 mg) was added and stirred. The solution was left and measured (Day2–4; 25,000 scans). In the case of DMSO aq., the concentration of DMSO uesd was adjusted to be equimolar to 50 wt% TMG aq.

Series [5] can be described thus: Dissolution time of cisplatin/TMG powder vs native cisplatin powder. Format: physicochemical. As to conditions: native cisplatin powder in 50 wt% TMG aq. On the procedure: (§1) The platinating agent (10 mM) was added to the 50 wt% TMG aq. (1 mL) and solubilized by stirring for 1 h. The resulting solution was left for more than one day. The resulting solution was freeze-dried and a pale yellow powder was obtained.
The yellow precipitates are undissolved cisplatin.

Series [6] deals with MDA-MB-231 cells. The experiment in a line: Anticancer efficiency of cisplatin (cell viability, CellTiter 96 Aqueous One Solution). The conditions noted are these: final 0.1-100 µM. Format: cell-based, human. On the procedure: MDA-MB-231 human breast cancer cell was kindly gifted from Prof. Erik Sahai (The Francis-Crick Institute, UK) and described previously^7. The cells were grown and maintained as monolayer cultures in 5% CO2 and humidified atmosphere at 37 °C, using Dulbecco's modified Eagle medium (high glucose with L-glutamine and phenol red, Fujiﬁlm Wako Pure Chemical Corporation), 10 vol% fetal bovine serum (Sigma-Aldrich Co., Llc.), and penicillin–streptomycin solution (×100; Fujiﬁlm Wako Pure Chemical Corporation). The cells were subcultured every 3–5 days by using trypsin solution (0.5w/v% trypsin—5.3mmol/L EDTA·4Na solution without phenol red (×10), Fujiﬁlm Wako Pure Chemical Corporation).
Anticancer efficiency of cisplatin
MDA-MB-231 cells (5,000 cells/well) were seeded to each well of a 96-well plate and then pre-cultured for 24 h. […] The solutions were added to the media to be 100, 10, 1, and 0.1 µM. The cells were cultured for 72 h and the cell viability was investigated with CellTiter 96® Aqueous One Solution.
as §1

Turning to `C[S+](C)[O-]` [DMSO, dimethyl sulfoxide], the “Kamlet-Taft β value (hydrogen bond basicity)” value in series [1] was 0.83.

Turning to `C[N+](C)(C)C[C@H](O)CC(=O)[O-]` [L-carnitine], in series [2], the Solubility in water result is on record as “approximately 70 wt%”.

Regarding `C[N+](C)(C)CC(=O)O` [TMG, Trimethylglycine], in series [3], the “Effect on nephrotoxicity when cisplatin is administered” value is given as “reduces nephrotoxicity”.

For the molecule `N.N.O.[Cl][Pt+]` [[Pt(NH3)2Cl(H2O)]^+], the “Reversion to Pt(NH3)2Cl2 in the presence of NaCl” value in series [4] (50 wt% TMG aq., after NaCl addition) is “reverted to Pt(NH3)2Cl2”. Besides, the “Ratio of Pt species by 195Pt NMR” value in series [4] (50 wt% TMG aq., after NaCl addition, day 2) was 2 mol%; in series [4] (50 wt% TMG aq., after NaCl addition, day 3), 0 mol%; in series [4] (50 wt% TMG aq., after NaCl addition, day 4), 0 mol%; in series [4] (50 wt% TMG aq., left for 24 h (day 1), before NaCl addition), 17 mol%. In addition, the “Detection of Pt species by 195Pt NMR” value in series [4] was “not detected”.

`N.N.[Cl][Pt][Cl]` [cisplatin]: the “Time required for dissolution” value in series [5] was “approximately 1 h”. In addition, the MDA-MB-231 cell viability entry in series [6] (10 mM cisplatin stock in 50 wt% TMG aq., 72 h) is “decreased in a dose-dependent manner”; in series [6] (solution regenerated with water from freeze-dried cisplatin/TMG powder (10 mM cisplatin in 50 wt% TMG aq.)) it was “killed MDA-MB-231 cells in a dose-dependent manner”. Besides, the “Anticancer effect (MDA-MB-231 cell viability)” value in series [6] (cisplatin stock in 50 wt% L-carnitine aq., 72 h) is given as “retained the anticancer effect”; in series [6] (cisplatin stock in DMSO, 72 h) it was “abolished”. Further, the “Ligand exchange (195Pt NMR)” value in series [4] (50 wt% TMG aq., immediately after dissolution) was “ligand exchange did not occur”. In series [4] (50 wt% TMG aq., room temperature, after 10 days), this molecule displayed a Chloride ligand exchanged of 66 mol%. Also, the “Integral value of the signal of the emerging compound (Pt(NH3)2Cl2 signal fixed as 1.0)” value is 1.25 in series [4] (50 wt% TMG aq., room temperature, day 5) and 1.90 in series [4] (50 wt% TMG aq., room temperature, day 10). Besides, in series [4], the “Detection of Pt species by 195Pt NMR” value is on record as “not detected”.

Turning to `O` [water], in series [1], the “Kamlet-Taft β value (hydrogen bond basicity)” value was “around 0.15”.

With [Pt(NH3)Cl(DMSO)]^+, the “Detection of Pt species by 195Pt NMR” value in series [4] is on record as “detected”. Further, the “Reversion to Pt(NH3)2Cl2 in the presence of NaCl” value in series [4] (DMSO aq., after NaCl addition) was “scarcely reverted to Pt(NH3)2Cl2”.
